Measured values as given in patent US6111065A, “Peptide inhibitors of inflammation mediated by selectins” (Centocor, Inc., priority 1994, dated 2000).
No end group written: not given here.

Target: T1, GMP-140 (Homo sapiens, UniProt P16109)
T1 construct: from tissue; host or cells: human platelets (outdated platelet packs from a blood bank)
T1 sequence (P16109 42-830): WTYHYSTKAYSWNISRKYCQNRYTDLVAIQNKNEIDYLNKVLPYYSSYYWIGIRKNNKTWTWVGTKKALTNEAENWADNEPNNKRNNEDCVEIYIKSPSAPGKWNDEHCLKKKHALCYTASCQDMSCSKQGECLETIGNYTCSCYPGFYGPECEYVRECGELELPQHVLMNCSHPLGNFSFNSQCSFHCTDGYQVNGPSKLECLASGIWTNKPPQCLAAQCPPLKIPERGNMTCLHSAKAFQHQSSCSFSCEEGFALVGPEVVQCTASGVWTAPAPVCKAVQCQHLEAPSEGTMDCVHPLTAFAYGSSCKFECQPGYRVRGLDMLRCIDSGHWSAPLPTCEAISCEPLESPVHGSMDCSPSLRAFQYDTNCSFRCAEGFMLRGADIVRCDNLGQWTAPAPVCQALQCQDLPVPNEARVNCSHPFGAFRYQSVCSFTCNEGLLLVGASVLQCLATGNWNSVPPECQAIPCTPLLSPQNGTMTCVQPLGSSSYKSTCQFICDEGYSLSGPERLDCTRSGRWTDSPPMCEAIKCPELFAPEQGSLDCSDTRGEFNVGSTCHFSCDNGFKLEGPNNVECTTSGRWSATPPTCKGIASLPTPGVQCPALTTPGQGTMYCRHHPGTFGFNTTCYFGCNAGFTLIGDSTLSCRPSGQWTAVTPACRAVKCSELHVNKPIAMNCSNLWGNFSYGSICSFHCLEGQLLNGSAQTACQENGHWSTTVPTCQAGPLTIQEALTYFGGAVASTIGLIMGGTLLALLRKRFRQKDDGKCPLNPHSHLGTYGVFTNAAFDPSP
Test: Inhibition of neutrophil binding to GMP-140 coated wells
Type: cell-based
Settings: read-out: PERCENT INHIBITION OF NEUTROPHIL BINDING
Source text: Peptides can be screened for their ability to inhibit adhesion to cells, for example, neutrophil adhesion to purified GMP-140 immobilized on plastic wells, using the assay described by Geng, et al., Nature 343, 757-760 (1990).
Human neutrophils are isolated from heparinized whole blood by density gradient centrifugation on Mono-Poly resolving media, Flow Laboratories. Neutrophil suspensions are greater than 98% pure and greater than 95% viable by trypan blue exclusion. For adhesion assays, neutrophils are suspended at a concentration of 2×10^6 cells/ml in Hanks' balanced salt solution containing 1.26 mM Ca^2+ and 0.81 mM Mg^2+ (HBSS, Gibco) with 5 mg/ml human serum albumin (HBSS/HSA). Adhesion assays are conducted in triplicate in 96-well microtiter plates, Corning, incubated at 4° C. overnight with 50 microliters of various protein solutions.
GMP-140 is isolated from human platelet lysates by immunoaffinity chromatography on antibody S12-Sepharose™ and ion-exchange chromatography on a Mono-Q™ column (FLPC, Pharmacia Fine Chemicals), as follows.
Outdated human platelet packs (100 units) obtained from a blood bank and stored at 4° C. are pooled, adjusted to 5 mM EDTA at pH 7.5, centrifuged at 4,000 rpm for 30 min in 1 liter bottles, then washed three times with 1 liter of 0.1 M NaCl, 20 mM Tris pH 7.5 (TBS), 5 mM EDTA, 5 mM benzamidine.
The pellets are then resuspended in a minimum amount of wash buffer and made 1 mM in DIFP, then frozen in 50 ml screwtop tubes at -80° C. The frozen platelets are thawed and resuspended in 50 ml TBS, 5 mM benzamidine, 5 mM EDTA pH 7.5, 100 µM leupeptin. The suspension is frozen and thawed two times in a dry ice-acetone bath using a 600 ml lyophilizing flask, then homogenized in a glass/teflon mortar and pestle and made 1 mM in DIFP. The NaCl concentration is adjusted to 0.5 M with a stock solution of 4 M NaCl. […]
Bound GMP-140 is eluted from the S12 Affigel with 100 ml of 80% ethylene glycol, 1 mM MES pH 6.0, 0.01% Lubrol PX. Peak fractions with absorbance at 280 nm are pooled. […]

“RKEAEIWTDV-NH2 [RKEAEIWTDV-NH2, Arginyl-lysyl-glutamyl-alanyl-glutamyl-isoleucyl-tryptophyl-threonyl-aspartyl-valine amide]” gave an inhibition at 100 µM (peptide concentration 0.10 Mm) of 19%, an inhibition at 300 µM (peptide concentration 0.30 Mm) of 63% and an inhibition at 1000 µM (peptide concentration 1.0 Mm) of 67%.
